The target in assay [1] is T1, TANK binding kinase (TBK1) (Homo sapiens, UniProt Q9UHD2).
T1 sequence (Q9UHD2 1-729): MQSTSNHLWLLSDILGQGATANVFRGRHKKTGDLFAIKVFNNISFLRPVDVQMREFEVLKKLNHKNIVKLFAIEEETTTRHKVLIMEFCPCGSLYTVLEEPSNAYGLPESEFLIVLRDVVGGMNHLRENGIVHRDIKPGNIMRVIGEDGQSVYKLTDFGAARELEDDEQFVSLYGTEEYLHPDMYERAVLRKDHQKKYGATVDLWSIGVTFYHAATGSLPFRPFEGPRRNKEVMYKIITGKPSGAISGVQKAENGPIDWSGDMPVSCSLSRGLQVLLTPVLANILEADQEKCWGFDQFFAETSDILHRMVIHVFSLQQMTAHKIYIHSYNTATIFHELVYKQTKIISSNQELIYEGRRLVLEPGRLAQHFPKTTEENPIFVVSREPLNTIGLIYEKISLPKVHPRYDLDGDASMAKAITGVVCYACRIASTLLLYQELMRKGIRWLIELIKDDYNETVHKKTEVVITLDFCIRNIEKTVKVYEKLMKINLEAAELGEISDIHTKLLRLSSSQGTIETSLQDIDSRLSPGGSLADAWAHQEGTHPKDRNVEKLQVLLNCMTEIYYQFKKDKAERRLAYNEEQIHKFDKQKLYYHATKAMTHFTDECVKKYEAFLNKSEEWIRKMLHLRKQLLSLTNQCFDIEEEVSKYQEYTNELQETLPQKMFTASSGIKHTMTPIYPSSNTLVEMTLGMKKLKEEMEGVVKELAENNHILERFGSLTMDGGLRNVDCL
Description: TBK1 enzyme assay (384-well Flashplate kinase assay). As to conditions: 10 μM ATP, 120 Min at 30° C. In kind it is biochemical. As to the method: The kinase assay is performed as 384-well Flashplate assay (for e.g. Topcount measurement.
0.6 nM TANK binding kinase (TBK1), 800 nM biotinylated MELK-derived peptide (Biotin-Ah-Ah-[…]) and 10 μM ATP (spiked with 0.25 μCi ^33P-ATP/well) are incubated in a total volume of 50 μl (10 mM MOPS, 10 mM Mg-acetat, 0.1 mM EGTA, 1 mM DTT, 0.02% Brij35, 0.1% BSA, pH 7.5) with or without test compound for 120 Min at 30° C. The reaction is stopped with 25 μl 200 mM EDTA. After 30 Min at room temperature the liquid is removed and each well washed thrice with 100 μl 0.9% sodium chloride solution. Nonspecific reaction is determined in presence of 100 nM Staurosporine. Radioactivity is measured in a Topcount (PerkinElmer). Results (e.g. IC50-values) are calculated with program tools provided by the IT-department (e.g. AssayExplorer, Symyx).

A further assay concerns the target T2, IKKε (Homo sapiens, UniProt Q14164).
T2 sequence (Q14164 1-716): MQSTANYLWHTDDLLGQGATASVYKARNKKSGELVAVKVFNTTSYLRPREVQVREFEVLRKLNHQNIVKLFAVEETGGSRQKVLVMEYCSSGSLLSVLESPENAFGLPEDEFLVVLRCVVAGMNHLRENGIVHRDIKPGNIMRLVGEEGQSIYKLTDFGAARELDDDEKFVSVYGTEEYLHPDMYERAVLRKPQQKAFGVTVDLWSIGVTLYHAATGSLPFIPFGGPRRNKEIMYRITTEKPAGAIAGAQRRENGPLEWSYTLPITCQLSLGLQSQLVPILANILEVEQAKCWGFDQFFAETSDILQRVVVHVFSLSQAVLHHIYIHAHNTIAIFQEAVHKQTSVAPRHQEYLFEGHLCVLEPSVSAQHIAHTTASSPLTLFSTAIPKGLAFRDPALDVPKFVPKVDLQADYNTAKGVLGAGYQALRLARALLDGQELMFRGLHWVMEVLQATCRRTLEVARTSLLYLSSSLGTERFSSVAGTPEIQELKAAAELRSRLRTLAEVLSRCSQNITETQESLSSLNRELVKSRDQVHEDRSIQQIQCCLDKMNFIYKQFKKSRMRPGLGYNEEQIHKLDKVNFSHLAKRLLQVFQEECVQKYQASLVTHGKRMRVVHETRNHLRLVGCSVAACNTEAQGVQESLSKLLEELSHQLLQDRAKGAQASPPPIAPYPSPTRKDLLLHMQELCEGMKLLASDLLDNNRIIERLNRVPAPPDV
Description: IKKε kinase assay (384-well Flashplate). In kind it is biochemical. As to conditions: 10 μM ATP, 2 hours at 30° C.; read-out: IKKε enzyme assay IC50. On the procedure:
The kinase assay is performed either as 384-well Flashplate assay (for e.g. Topcount measurement).
1 nM IKKε, 800 nM biotinylated IκBα(19-42) peptide (Biotin-C6-C6-[…]) and 10 μM ATP (spiked with 0.3 μCi ^33P-ATP/well) are incubated in a total volume of 50 μl (10 mM MOPS, 10 mM Mg-acetat, 0.1 mM EGTA, 1 mM Dithiothreitol, 0.02% Brij35, 0.1% BSA, 0.1% BioStab, pH 7.5) with or without test compound for 2 hours at 30° C. The reaction is stopped with 25 μl 200 mM EDTA. After 30 Min at room temperature the liquid is removed and each well washed thrice with 100 μl 0.9% sodium chloride solution. […] Radioactivity is measured with Topcount (PerkinElmer). Results (e.g. IC50-values) are calculated with program tools provided by the IT-department (e.g. AssayExplorer, Symyx).

In the case of `COc1cc(-c2cc3nccc(-c4ccc(OC5CCOCC5)c(C#N)c4)c3o2)ccc1C(=O)N1CCN(CCO)CC1` [Compound A89], the IC50 (in assay [1]; on IKKε) was less than 300 nM in each case.
Regarding `COc1cc(-c2cc3nccc(-c4ccc(OC5CCOC5)c(C#N)c4)c3o2)ccc1C(=O)N1CCNCC1` (stereo not shown) [Compound A68], the IC50 (in assay [1]; on IKKε) was less than 300 nM each time.
For the compound `CS(=O)(=O)c1cncc(-c2cc3nccc(-c4ccc(OC5CCOCC5)c(C#N)c4)c3o2)c1` [Compound A70], the IC50 (in assay [1]; at IKKε) was 300 to 3000 nM in each case.
For `N#Cc1cc(-c2ccnc3cc(-c4ccc(C(=O)N5CCNCC5)cc4F)oc23)ccc1OC1CCOCC1` [Compound A111], the IC50 (in assay [1]; at IKKε) was less than 300 nM each time.
Turning to `Cc1occc1-c1cc2nccc(-c3ccc(OC4CCOCC4)c(C#N)c3)c2o1` [Compound A55], the IC50 in assay [1] is 300 to 3000 nM; at IKKε, less than 300 nM.
With `COCCN(C)C(=O)c1ccc(-c2cc3nccc(-c4ccc(OC5CCOCC5)c(C#N)c4)c3o2)cc1` [Compound A26, 4-{7-[3-cyano-4-(tetrahydro-pyran-4-yloxy)-phenyl]-furo[3,2-b]pyridin-2-yl}-N-(2-methoxy-ethyl)-N-methyl-benzamide], the IC50 (in assay [1]; on IKKε) was less than 300 nM in each case.
For the compound `CC(C)(C)OCCNC(=O)c1ccc(-c2cc3nccc(-c4ccc(OC5CCOCC5)c(C#N)c4)c3o2)cc1` [Compound A21, N-(2-tert-butoxy-ethyl)-4-{7-[3-cyano-4-(tetrahydro-pyran-4-yloxy)-phenyl]-furo[3,2-b]pyridin-2-yl}-benzamide], the IC50 (in assay [1]; on IKKε) was 300 to 3000 nM each time.
For `COc1cc(-c2cc3nccc(-c4ccc(OC5CCOCC5)c(C#N)c4)c3o2)ccc1C(=O)N[C@@H]1CCCNC1` [Compound A106], the IC50 (in assay [1]; on IKKε) was less than 300 nM throughout.
For the compound `COc1cc(-c2cc3nccc(-c4ccc(OC5CCOCC5)c(C#N)c4)c3o2)ccc1C(=O)N[C@H]1CCCNC1` [Compound A94], the half-inhibitory concentration (IC50) (in assay [1]; at IKKε) was less than 300 nM throughout.
For the compound `N#Cc1cc(-c2ccnc3cc(-c4ccc(C(=O)N5CCNCC5)cc4)oc23)ccc1N1CCOCC1` [Compound A73], the IC50 (in assay [1]; at IKKε) was less than 300 nM in each case.
With `N#Cc1cc(-c2ccnc3cc(-c4cnn(CCCO)c4)oc23)ccc1OC1CCOCC1` [Compound A54], the IC50 (in assay [1]; on IKKε) was less than 300 nM throughout.
As for `N#Cc1cc(-c2ccnc3cc(-c4ccc(C(=O)NCCO)cc4)oc23)ccc1OC1CCOCC1` [Compound A33, 4-{7-[3-cyano-4-(tetrahydro-pyran-4-yloxy)-phenyl]-furo[3,2-b]pyridin-2-yl}-N-(2-hydroxy-ethyl)-benzamide], the IC50 (in assay [1]; on IKKε) was less than 300 nM in each case.
As to `CNC(=O)c1ccc(-c2cc3nccc(-c4ccc(OC5CCOCC5)c(C#N)c4)c3o2)cc1` [Compound A19, 4-{7-[3-cyano-4-(tetrahydro-pyran-4-yloxy)-phenyl]-furo[3,2-b]pyridin-2-yl}-N-methyl-benzamide], the IC50 (in assay [1]; at IKKε) was 300 to 3000 nM in each case.
On to `N#Cc1cc(-c2ccnc3cc(-c4ccc(C(=O)NCCN5CCCC5)cc4)oc23)ccc1OC1CCOCC1` [Compound A78], for which the IC50 (in assay [1]; at IKKε) was less than 300 nM each time.
As to `N#Cc1cc(-c2ccnc3cc(-c4cnn(C5CCN(CCO)CC5)c4)sc23)ccc1OC1CCOCC1` [Compound A97], the IC50 (in assay [1]; at IKKε) was less than 300 nM each time.
`N#Cc1cc(-c2ccnc3cc(-c4ccc(C(=O)N5CCOCC5)cc4F)oc23)ccc1OC1CCOCC1` [Compound A114]: the IC50 (in assay [1]; on IKKε) was less than 300 nM throughout.
Take `COc1cc(C(=O)N2CCC(O)CC2)ccc1-c1cc2nccc(-c3ccc(OC4CCOCC4)c(C#N)c3)c2o1` [Compound A116]: the IC50 (in assay [1]; on IKKε) was less than 300 nM each time.
For `CCN(CCN(C)C)C(=O)c1ccc(-c2cc3nccc(-c4ccc(OC5CCOCC5)c(C#N)c4)c3s2)cc1OC` [Compound A51], the IC50 (in assay [1]; on IKKε) was less than 300 nM each time.
Take `CNCCNC(=O)c1ccc(-c2cc3nccc(-c4ccc(OC5CCOCC5)c(C#N)c4)c3o2)cc1` [Compound A15, 4-{7-[3-cyano-4-(tetrahydro-pyran-4-yloxy)-phenyl]-furo[3,2-b]pyridin-2-yl}-N-(2-methylamino-ethyl)-benzamide]: the results for the 50% inhibitory concentration (IC50) (in assay [1]; on IKKε) were 300 to 3000 nM and less than 300 nM, respectively.
In the same order, the values of `CN(CCO)C(=O)c1ccc(-c2cc3nccc(-c4ccc(OC5CCOC5)c(C#N)c4)c3s2)cc1` (stereo not shown) [Compound A95] are less than 300 nM and less than 300 nM.
The corresponding values for `CN(C)C(=O)c1ccc(-c2cc3nccc(-c4ccc(OC5CCOCC5)c(C#N)c4)c3o2)cc1` [Compound A23, 4-{7-[3-cyano-4-(tetrahydro-pyran-4-yloxy)-phenyl]-furo[3,2-b]pyridin-2-yl}-N,N-dimethyl-benzamide] are less than 300 nM and less than 300 nM.
The corresponding values for `COc1cc(-c2cc3nccc(-c4ccc(OC5CCOCC5)c(C#N)c4)c3o2)ccc1C(=O)N1CC2(COC2)C1` [Compound A30, 5-{2-[3-methoxy-4-(2-oxa-6-aza-spiro[3.3]heptane-6-carbonyl)-phenyl]-furo[3,2-b]pyridin-7-yl}-2-(tetrahydro-pyran-4-yloxy)-benzonitrile] are less than 300 nM and less than 300 nM.
For `N#Cc1cc(-c2ccnc3cc(-c4cnc5ccccc5c4)oc23)ccc1OC1CCOCC1` [Compound A57], the IC50 in assay [1] was 3000 to 50000 nM; on IKKε, 300 to 3000 nM.
The corresponding values for `CN(C)CCN(C)C(=O)c1ccc(-c2cc3nccc(-c4ccc(OC5CCOCC5)c(C#N)c4)c3o2)cc1` [Compound A28, 4-{7-[3-cyano-4-(tetrahydro-pyran-4-yloxy)-phenyl]-furo[3,2-b]pyridin-2-yl}-N-(2-dimethylamino-ethyl)-N-methyl-benzamide] are less than 300 nM and less than 300 nM.
The corresponding values for `N#Cc1cc(-c2ccnc3cc(-c4ccc(N5CCOCC5)cc4)oc23)ccc1OC1CCOCC1` [Compound A1, 5-[2-(4-Morpholin-4-yl-phenyl)-furo[3,2-b]pyridin-7-yl]-2-(tetrahydro-pyran-4-yloxy)-benzonitrile] are 3000 to 50000 nM and 3000 to 50000 nM.
In the same order, the values of `COc1cc(-c2cc3nccc(-c4ccc(OC5CCOCC5)c(C#N)c4)c3o2)ccc1C(=O)NCCN1CCNC1=O` [Compound A87] are less than 300 nM and less than 300 nM.

For orientation: IC50 means the concentration at which inhibition is half-maximal.

The values above are taken from patent US9045493B2, “Furo[3,2-b]- and thieno[3,2-b]pyridin derivatives” (Merck Patent GmbH, priority 2012, dated 2015).
